Patent US20110269783A1, “NOVEL 2,3-DIAMINO-QUINAZOLINONE DERIVATIVES AND THEIR MEDICAL USE” (NEUROSEARCH A/S, priority 2008, published 2011)

Target: T1, human Kv7.2+3 (Homo sapiens, UniProt O43525+O43526)
T1 construct: expressed in transfected cells; host or cells: HEK293
Experiment: FLIPR-based thallium influx characterization of Kv7.2+3 modulators
Type: cell-based
Settings: for EC50: HEK293 cells over-expressing human Kv7.2+3, Tl+ influx, BTC-AM, FLIPR, 50% of channel activity compared to retigabine control responses; for Emax: maximal response relative to the reference (retigabine) response, HEK293 human Kv7.2+3, Tl+ influx FLIPR, read-out: Efficacy
Experimental: This experiment determines the ability of a test compound to modulate the activity of Kv7.2+3 channels heterologously expressed in human HEK293 cells. The ability is determined relative to retigabine. The activity is determined using a standard thallium (I) sensitive assay, e.g. using a fluorometric method in a Fluorescent Image Plate Reader (FLIPR) as described below in more detail.
Full concentration/response curves are generated and EC50 values are calculated based on max values. EC50 values (Effective Concentration) represent the concentration of the test substance, at which 50% of the channel activity is obtained when compared to retigabine control responses. Maximal response determined relative to the reference (retigabine) response is calculated.
Human HEK293 cells over-expressing human Kv7.2+3 are grown in culture medium (DMEM supplemented with 10% foetal bovine serum), in polystyrene culture flasks ([…]) in a humidified atmosphere of 5% CO2 in air, at 37° C. Cell confluence should be 80-90% on day of plating. Cells are rinsed with 4 ml of PBS (phosphate buffered saline) and incubated 2 min with 1 ml of Trypsin-EDTA. After addition of 25 ml of culture medium cells are re-suspended by trituration with a 25 ml pipette.
The cells are seeded at a density of ˜3×10^6 cells/ml (25 μl/well) in black-walled, clear bottom, 384-well plates pre-treated with 0.01 g/l poly-D-lysin (20 μl/well for ≧30 min). Plated cells were allowed to proliferate for 24 h before loading with dye.
BTC-AM ([…], Invitrogen) is added 25.5 μl DMSO. The BTC-AM stock solution (2 mM) is diluted to a final concentration of 2 μM in Cl^− free assay buffer (in mM: 140 Natgluconate, 2.5 K^+-gluconate, 6 Ca2^+-gluconate, 1 Mg^2+ gluconate, 5 glucose, 10 HEPES, pH 7.3) containing 2 μM ouabain, 2 mM amaranth and 1 mM tartrazine.
The culture medium is aspirated from the wells, the cells are washed thrice in Cl^− free assay buffer, and 25 μl of the BTC-AM loading solution is added to each well. The cells are incubated at 37° C. for 60 min.
After the loading period, the Tl^+-sensitive BTC fluorescence signal is measured over time using a FLIPR.
• Temperature: Room temp. • First addition: 12 μl test or control compound after 15 sec at a rate of 30 μl/sec and starting height of 20 μl • Second addition: 12 μl stimulus buffer (Cl^− free assay buffer supplemented with 1 mM Tl2SO4, 5 mM K2SO4 as well as the quenchers amaranth (2 mM) and tartrazine (1 mM)) is added after an additional 3 minutes at a rate of 30 μl/sec and starting height of 30 μl • Reading intervals: First sequence—3 sec×5, 2 sec×24 and 5 sec×25 • Second sequence—1 sec×5, 2 sec×24 and 5 sec×36
Addition plates (compound plate and stimulus plate) are placed in positions 2 and 3, respectively. Cell plates are placed in position 1 and run using the “KCNQ (two additions)” program. FLIPR will then take the appropriate measurements in accordance with the interval settings above. Fluorescence obtained after stimulation is corrected for the mean basal fluorescence (in Cl^− free assay buffer).
Full concentration/response curves are generated and EC50 values (“Effective Concentration”; the concentration at which 50% of the channel activity is obtained when compared to retigabine control responses) are calculated based on peak values. Maximal response determined relative to the reference (retigabine) response is calculated.

## O=C(COc1ccccc1)Nn1c(N2CCCC2)nc2ccccc2c1=O [Compound 1.9, N-(4-Oxo-2-pyrrolidin-1-yl-4H-quinazolin-3-yl)-2-phenoxy-acetamide]
  EC50: 12000 nM
  Emax: 75%

## O=C(CSc1ccccc1)Nn1c(N2CCCC2)nc2ccccc2c1=O [Compound 1.8, N-(4-Oxo-2-pyrrolidin-1-yl-4H-quinazolin-3-yl)-2-phenylsulfanyl-acetamide]
  EC50: 3300 nM
  Emax: 103%

## CN(Cc1ccccc1)c1nc2ccccc2c(=O)n1NC(=O)CCc1cc(F)cc(F)c1 [Compound 1.4, N-[2-(Benzyl-methyl-amino)-4-oxo-4H-quinazolin-3-yl]-3-(3,5-difluoro-phenyl)-propionamide]
  EC50: 3900 nM
  Emax: 40%

## COCCN(C)c1nc2ccccc2c(=O)n1NC(=O)CCc1cccc(F)c1 [Compound 1.2, 3-(3-Fluoro-phenyl)-N-{2-[(2-methoxy-ethyl)-methyl-amino]-4-oxo-4H-quinazolin-3-yl}-propionamide]
  EC50: 9500 nM
  Emax: 130%

## O=C(Nn1c(N2CCCC2)nc2c(F)cccc2c1=O)[C@@H]1C[C@@H]1c1ccc(Cl)cc1 (relative stereo) [Compound 2.7, cis-2-(4-Chloro-phenyl)-cyclopropanecarboxylic acid (8-fluoro-4-oxo-2-pyrrolidin-1-yl-4H-quinazolin-3-yl)-amide]
  EC50: 270 nM
  Emax: 101%

## CC(C)N(C)c1nc2cc(F)cc(F)c2c(=O)n1NC(=O)[C@@H]1C[C@@H]1c1ccc(Cl)cc1 (relative stereo) [Compound 2.2, cis-2-(4-Chloro-phenyl)-cyclopropanecarboxylic acid [5,7-difluoro-2-(isopropyl-methyl-amino)-4-oxo-4H-quinazolin-3-yl]-amide]
  EC50: 450 nM
  Emax: 116%

## CN(C)c1nc2cc(F)ccc2c(=O)n1NC(=O)CCc1cccc(F)c1 [Compound 1.7, N-(2-Dimethylamino-7-fluoro-4-oxo-4H-quinazolin-3-yl)-3-(3-fluoro-phenyl)-propionamide]
  EC50: 2500 nM
  Emax: 112%

## O=C(CCc1cccc(F)c1)Nn1c(N2CCCC2)nc2cc(F)ccc2c1=O [Compound 1.1, N-(7-Fluoro-4-oxo-2-pyrrolidin-1-yl-4H-quinazolin-3-yl)-3-(3-fluoro-phenvl)-propion-amide]
  EC50: 260 nM
  Emax: 154%

## CC(CC(=O)Nn1c(N2CCCC2)nc2ccccc2c1=O)c1ccc(Cl)cc1 (centres unmarked) [Compound 1.17, 3-(4-Chloro-phenyl)-N-(4-oxo-2-pyrrolidin-1-yl-4H-quinazolin-3-yl)-butyramide]
  EC50: 100 nM
  Emax: 85%

## CC(CC(=O)Nn1c(N2CCCC2)nc2ccccc2c1=O)c1cccc(F)c1 (centres unmarked) [Compound 1.18, 3-(3-Fluoro-phenyl)-N-(4-oxo-2-pyrrolidin-1-yl-4H-quinazolin-3-yl)-butyramide]
  EC50: 15 nM
  Emax: 98%

## O=C(Nn1c(N2CCCC2)nc2cc(F)cc(F)c2c1=O)[C@@H]1C[C@@H]1c1ccc(Cl)cc1 (relative stereo) [Compound 2.3, cis-2-(4-Chloro-phenyl)-cyclopropanecarboxylic acid (5,7-difluoro-4-oxo-2-pyrro-lidin-1-yl-4H-quinazolin-3-yl)-amide]
  EC50: 830 nM
  Emax: 109%

## CCN(C)c1nc2cc(F)cc(F)c2c(=O)n1NC(=O)[C@@H]1C[C@@H]1c1ccc(Cl)cc1 (relative stereo) [Compound 2.6, cis-2-(4-Chloro-phenyl)-cyclopropanecarboxylic acid [2-(ethyl-methyl-amino)-5,7-difluoro-4-oxo-4H-quina-zolin-3-yl]-amide]
  EC50: 500 nM
  Emax: 110%

## C[C@@H](CC(=O)Nn1c(N2CCCC2)nc2cc(F)cc(F)c2c1=O)c1ccccc1 [Compound 1.16, (S)-N-(5,7-Difluoro-4-oxo-2-pyrrolidin-1-yl-4H-quina-zolin-3-yl)-3-phenyl-butyr-amide]
  EC50: 2.8 nM
  Emax: 68%

## O=C(CCc1cccc(F)c1)Nn1c(N2CCCC2)nc2cccc(F)c2c1=O [Compound 1.10, N-(5-Fluoro-4-oxo-2-pyrro-lidin-1-yl-4H-quinazolin-3-yl)-3-(3-fluoro-phenyl)-propionamide]
  EC50: 340 nM
  Emax: 100%

## CN(C)c1nc2cc(F)ccc2c(=O)n1NC(=O)[C@@H]1C[C@@H]1c1ccc(Cl)cc1 (relative stereo) [Compound 2.1, cis-2-(4-Chloro-phenyl)-cyclopropanecarboxylic acid (2-dimethylamino-7-fluoro-4-oxo-4H-quinazolin-3-yl)-amide]
  EC50: 1400 nM
  Emax: 118%

## O=C(CCc1cccc(F)c1)Nn1c(N2CCCC2)nc2ccccc2c1=O [Compound 1.5, 3-(3-Fluoro-phenyl)-N-(4-oxo-2-pyrrolidin-1-yl-4H-quinazolin-3-yl)-propion-amide]
  EC50: 410 nM
  Emax: 148%

## CC(C)N(C)c1nc2cc(F)cc(F)c2c(=O)n1NC(=O)CCc1cccc(F)c1 [Compound 1.14, N-[5,7-Difluoro-2-(isopropyl-methyl-amino)-4-oxo-4H-quinazolin-3-yl]-3-(3-fluoro-phenyl)-propionamide]
  EC50: 450 nM
  Emax: 109%

## O=C(CCc1ccccc1)Nn1c(N2CCCC2)nc2ccccc2c1=O [Compound 1.6, N-(4-Oxo-2-pyrrolidin-1-yl-4H-quinazolin-3-yl)-3-phenyl-propionamide]
  EC50: 660 nM
  Emax: 96%

## CCN(C)c1nc2cc(F)ccc2c(=O)n1NC(=O)[C@@H]1C[C@@H]1c1ccc(Cl)cc1 (relative stereo) [Compound 2.4, cis-2-(4-Chloro-phenyl)-cyclopropanecarboxylic acid [2-(ethyl-methyl-amino)-7-fluoro-4-oxo-4H-quinazolin-3-yl]-amide]
  EC50: 940 nM
  Emax: 114%

## O=C(CCc1cccc(F)c1)Nn1c(N2CCCC2)nc2cc(F)cc(F)c2c1=O [Compound 1.12, N-(5,7-Difluoro-4-oxo-2-pyrrolidin-1-yl-4H-quina-zolin-3-yl)-3-(3-fluoro-phenyl)-propionamide]
  EC50: 32 nM
  Emax: 122%

## CC(C)N(C)c1nc2cc(F)ccc2c(=O)n1NC(=O)[C@@H]1C[C@@H]1c1ccc(Cl)cc1 (relative stereo) [Compound 2.5, cis-2-(4-Chloro-phenyl)-cyclopropanecarboxylic acid [7-fluoro-2-(isopropyl-methyl-amino)-4-oxo-4H-quinazolin-3-yl]-amide]
  EC50: 930 nM
  Emax: 114%

## CN(Cc1ccccc1)c1nc2ccccc2c(=O)n1NC(=O)CCc1cccc(F)c1 [Compound 1.3, N-[2-(Benzyl-methyl-amino)-4-oxo-4H-quinazolin-3-yl]-3-(3-fluoro-phenyl)-propion-amide]
  EC50: 1600 nM
  Emax: 118%

## O=C(CSc1ccc(F)cc1)Nn1c(N2CCCC2)nc2ccccc2c1=O [Compound 1.11, 2-(4-Fluoro-phenylsulfanyl)-N-(4-oxo-2-pyrrolidin-1-yl-4H-quinazolin-3-yl)-acetamide]
  EC50: 2200 nM
  Emax: 106%

## CC(C)(C)c1ccc(SCC(=O)Nn2c(N3CCCC3)nc3ccccc3c2=O)cc1 [Compound 1.13, 2-(4-tert-Butyl-phenyl-sulfanyl)-N-(4-oxo-2-pyrro-lidin-1-yl-4H-quinazolin-3-yl)-acetamide]
  EC50: 2100 nM
  Emax: 41%

## O=C(CCc1cc(F)cc(F)c1)Nn1c(N2CCCC2)nc2cc(F)cc(F)c2c1=O [Compound 1.15, N-(5,7-Difluoro-4-oxo-2-pyrrolidin-1-yl-4H-quina-zolin-3-yl)-3-(3,5-difluoro-phenyl)-propionamide]
  EC50: 18 nM
  Emax: 112%
